Measurements from patent publication US20100130454A1, “9,10-SECOPREGNANE DERIVATIVES AND MEDICINE” (NIPPON SHINYAKU CO., LTD., priority 2004, published 2010).
Like-named read-outs stand apart in the source and are kept apart here.

Legend:
[1] = test system: human acute myelogenous leukemia cell line HL-60; assay: Ability to induce differentiation of HL-60 cells (oxygen radical production after phorbol ester stimulation, WST-1); type: cell-based; conditions: 72 hours incubation, then WST-1 and phorbol 12,13-didecanoate for 4 hours, absorbance at 450, read-out: EC50 (50%-maximal effect concentration), induction of HL-60 differentiation
Text: It has been known that human acute myelogenous leukemia cell line HL-60 is differentiated into a neutrophil-like cell by active form of vitamin D. Thus, the cells after the differentiation begin to express a surface marker such as CD11 and CD32 and, at the same time, they produce oxygen radical by stimulation with a phorbol ester. In this test, the above-mentioned property was utilized to assess an ability to induce the differentiation of HL-60 cell of the compounds of the present invention mentioned in the Examples and maxacalcitol using as an indicator the amount of oxygen radical produced by stimulation with a phorbol ester whereby a vitamin D3 activity was compared and investigated. When commercially available reagents and kits were used, they were used according to the indications attached thereto.
(Procedure) HL-60 cells (supplied from ATCC) were seeded on a 96-well plate at 5×10^3 cells/100 μL/well and a test compound in two-fold dilution series from 10^−7 M was added to the second to the twelfth rows (maximum concentration: the second row). The first row was used for blank. Maxacalcitol was added to lines A and B and the compound of the present invention was added to lines C and D. After incubation for 72 hours under a moisturized condition in the presence of 5% CO2 at 37° C. using a CO2 incubator, 101 μL of PBS containing 50 mM WST-1 (manufactured by Takara Bio) and 10 μM phorbol 12,13-didecanoate (manufactured by Sigma) were added to each well followed by incubating for 4 hours more. Absorbance (reference wavelength: 655 nM) at 450 nM of a WST-1 formazan dye generated by conversion from WST-1 by oxygen radical produced from the differentiated HL-60 cells was measured by a Benchmark microplate reader (manufactured by BioRad). An absorbance meter control software MPM 3 (manufactured by BioRad) was used and, from a concentration-absorbance curve, the 50%-maximal effect concentration (hereinafter, referred to as “EC50”) of each was determined by a logistic curve regression.

[2] = Action to raise the urinary excretion of calcium (1), repeated percutaneous administration; type: in vivo, rat; conditions: male SD rats, percutaneous 0.33, 3.3 and 33 μg/kg/day once daily for three days, urine collected every 24 hours, compared with control
Method: Open triangles show a control; open squares show the case where 0.33 μg/kg of the compound of Example 1 was administered; open rhombuses show the case where 3.3 μg/kg of the compound of Example 1 was administered; open circles show the case where 33 μg/kg of the compound of Example 1 was administered; black squares show the case where 0.33 μg/kg of maxacalcitol was administered; black rhombuses show the case where 3.3 μg/kg of maxacalcitol was administered; and black circles show the case where 33 μg/kg of maxacalcitol was administered.
A solution of the compound of the present invention mentioned in Example 1 or maxacalcitol in ethanol containing 0.3% of DMSO was repeatedly subjected to a percutaneous administration (0.33, 3.3 and 33 μg/200 μl/kg/day) for three days once daily onto the back of male rats (7 weeks of age) of the SD strain. An ethanol solution containing 0.3% of DMSO was administered to a control group. Calcium concentration in urine collected every 24 hours after administration on each day was measured and multiplied by the amount of urine to calculate the urinary excretion of calcium.

[3] = Metabolic rate in human liver microsome; type: in vitro ADME; conditions: pooled human liver microsome, 1 mg/mL protein, NADPH production system, pH 7.4, 37° C., HPLC
Method: Metabolic rates of the compounds of the present invention mentioned in Examples and maxacalcitol in human liver microsome were compared and investigated.
As to the pooled human liver microsome (HHM-0323), those manufactured by Tissue Transformation Technologies were used. A 0.25M potassium phosphate buffer (pH 7.4) (200 μL), 5 μL of a 250 μM solution of each compound to be tested in DMSO, 50 μL of an NADPH production system (where 20 mg of (β-NADP^+, 70 mg of glucose-6-phosphate, 40 units of glucose-6-phosphate dehydrogenase and 20 mg of magnesium chloride were dissolved in 1 mL of distilled water) and 220 μL of distilled water were added to a microtube and the mixture was subjected to a preincubation for 5 minutes at 37° C. Reaction was started by addition of 25 μL of human liver microsome (final concentration of protein: 1 mg/mL). Incubation was performed for 2, 10, 30 or 60 minutes and the reaction was stopped by addition of 500 μL of acetonitrile. After centrifugation at 13,000 rpm for 5 minutes, each test compound in the supernatant (25 μL) was measured by an HPLC under the following conditions.
Inertsil ODS-3 (4.6×150 mm; GL Science) was used as a column. With regard to mobile phase, a solution A (acetonitrile/0.1% aqueous solution of ammonium acetate=10/90) and a solution B (acetonitrile/0.1% aqueous solution of ammonium acetate=90/10) were used under the linear gradient conditions mentioned in Table 4. Column temperature, flow rate and wavelength for detection were set at 40° C., 1.0 mL/min. and UV 270 nm, respectively.
From the result of measurement by the above-mentioned HPLC, metabolic rates of the test compounds were calculated.

[4] = Action to raise calcium concentration in serum, repeated percutaneous administration; type: in vivo, rat; conditions: male SD rats, percutaneous 33 μg/200 μL/kg/day once daily for seven days, blood 24 hours after final administration
Method: A solution of the compound of the present invention mentioned in Example 1 or maxacalcitol in ethanol containing 0.3% of DMSO was repeatedly subjected to a percutaneous administration (33 μg/200 μL/kg/day) for seven days once daily onto the back of male rats (7 weeks of age) of the SD strain. An ethanol solution containing 0.3% of DMSO was administered to a control group. At 24 hours after the final administration, blood was collected and calcium concentration in serum was measured.

[5] = Action to raise the urinary excretion of calcium (2), intravenous administration; type: in vivo, rat; conditions: male SD rats, intravenous 22.4 nmol/kg; for Urinary excretion of calcium: urine collected during 24 hours after administration; for Ratio of urinary excretion of calcium (to Control): urine collected during 24 hours, relative to control group
Method: The compound of the present invention mentioned in Examples 3 or 8, or maxacalcitol (22.4 nmol/kg) was subjected to an intravenous administration to male rats (7 weeks of age) of the SD strain. A physiological saline containing 0.1% of Triton X 100 was administered to a control group. Calcium concentration in urine collected during 24 hours after the administration was measured and urinary excretion of calcium ([calcium concentration in urine]×[amount of urine]) and ratio of urinary excretion of calcium based on the control group ([calcium amount in urine upon administration of the compound to be tested]/[calcium amount in urine in the control group]) were calculated.

EC50 [1] | Metabolic Rate [3] | Compound | further results
0.21 nM |  | C=C1C(=CC=C2CCCC3(C)C2CCC3C(C)OC(=O)CC(C)(O)C(F)(F)F)CC(O)CC1O [Compound of Example 4, (1S,3R,20S)-20-(4,4,4-Trifluoro-3-hydroxy-3-methylbutanoyloxy)-9,10-secopregna-5Z,7E,10(19)-trien-1,3-diol] | 
1.1 nM |  | C=C1C(=CC=C2CCCC3(C)C2CCC3C(C)OC(=O)CC(O)C(C)C)CC(O)CC1O [Compound of Example 5, (1S,3R,20S)-20-(3-Hydroxy-4-methylpentanoyloxy)-9,10-secopregna-5Z,7E,10(19)-trien-1,3-diol] | 
1.2 nM | 58 pmol/min/mg | C=C1C(=CC=C2CCCC3(C)C2CCC3C(C)OC(=O)C=CC(O)(CC)CC)CC(O)CC1O [Compound of Example 10, (1S,3R,20S)-20-[(2E)-4-Ethyl-4-hydroxyhex-2-enoyloxy]-9,10-secopregna-5Z,7E,10(19)-trien-1,3-diol] | 
4 nM |  | C=C1C(=CC=C2CCCC3(C)C2CCC3C(C)OC(=O)CN(C)CC(C)(C)O)CC(O)CC1O [Compound of Example 19, (1S,3R,20S)-20-[N-(2-Hydroxy-2-methylpropyl)-N-methyl-2-aminoacetyloxy]-9,10-secopregna-5Z,7E,10(19)-trien-1,3-diol] | 
1.7 nM | 39 pmol/min/mg | C=C1C(=CC=C2CCCC3(C)C2CCC3C(C)OC(=O)CCC2(O)CCCC2)CC(O)CC1O [Compound of Example 20, (1S,3R,20S)-20-[3-(1-Hydroxycyclopentyl)propanoyloxy]-9,10-secopregna-5Z,7E,10(19)-trien-1,3-diol] | 

The remaining lines, values behind:

Compound | EC50 [1] | Metabolic Rate [3] | further results
C=C1/C(=C\C=C2/CCC[C@]3(C)[C@@H]([C@H](C)OC(=O)CCC(C)(C)O)CC[C@@H]23)C[C@@H](O)C[C@@H]1O [Compound of Example 1, (1S,3R,20S)-20-(4-Hydroxy-4-methyl-pentanoyloxy)-9,10-secopregna-5Z,7E,10(19)-trien-1,3-diol] | 2 nM | 78 pmol/min/mg | Urinary excretion of calcium (FIG. 1) [2]: no significant increase in urinary excretion of calcium; Calcium Concentration in Serum [4]: 11.8 mg/dL
C=C1C(=CC=C2CCCC3(C)C2CCC3C(C)OC(=O)CCCC(C)(C)O)CC(O)CC1O [Compound of Example 3, (1S,3R,20S)-20-(5-Hydroxy-5-methylhexanoyloxy)-9,10-secopregna-5Z,7E,10(19)-trien-1,3-diol] | 2.6 nM | 22 pmol/min/mg | Urinary excretion of calcium [5]: 0.66 mg; Ratio of urinary excretion of calcium (to Control) [5]: 93%
C=C1C(=CC=C2CCCC3(C)C2CCC3C(C)OC(=O)CC(O)(C(F)(F)F)C(F)(F)F)CC(O)CC1O [Compound of Example 7, (1S,3R,20S)-20-[4,4,4-Trifluoro-3-hydroxy-3-(trifluoromethyl)butanoyloxy]-9,10-secopregna-5Z,7E,10(19)-trien-1,3-diol] | 0.44 nM |  | 
C=C1/C(=C\C=C2/CCC[C@]3(C)[C@@H]([C@H](C)OC(=O)/C=C/C(C)(C)O)CC[C@@H]23)C[C@@H](O)C[C@@H]1O [Compound of Example 8, (1S,3R,20S)-20-[(2E)-4-Hydroxy-4-methylpent-2-enoyloxy]-9,10-secopregna-5Z,7E,10(19)-trien-1,3-diol] | 3.1 nM | 38 pmol/min/mg | Urinary excretion of calcium [5]: 0.89 mg; Ratio of urinary excretion of calcium (to Control) [5]: 125%
C=C1C(=CC=C2CCCC3(C)C2CCC3C(C)OC(=O)CC(CC)C(C)O)CC(O)CC1O [Compound of Example 12, (1S,3R,20S)-20-(3-Ethyl-4-hydroxypentanoyloxy)-9,10-secopregna-5Z,7E,10(19)-trien-1,3-diol] | 4.2 nM |  | 
C=C1C(=CC=C2CCCC3(C)C2CCC3C(C)OC(=O)CCC(O)(CC)CC)CC(O)CC1O [Compound of Example 13, (1S,3R,20S)-20-(4-Ethyl-4-hydroxyhexanoyloxy)-9,10-secopregna-5Z,7E,10(19)-trien-1,3-diol] | 2.3 nM | 38 pmol/min/mg | 
C=C1C(=CC=C2CCCC3(C)C2CCC3C(C)OC(=O)CC(=O)C(C)(C)O)CC(O)CC1O [Compound of Example 27, (1S,3R,20S)-20-(4-Hydroxy-4-methyl-3-oxo-pentanoyloxy)-9,10-secopregna-5Z,7E,10(19)-trien-1,3-diol] | 3 nM |  | 
C=C1C(=CC=C2CCCC3(C)C2CCC3C(C)OC(=O)CC(=O)C(O)(CC)CC)CC(O)CC1O [Compound of Example 28, (1S,3R,20S)-20-(4-Ethyl-4-hydroxy-3-oxo-hexanoyloxy)-9,10-secopregna-5Z,7E,10(19)-trien-1,3-diol] | 2.5 nM |  | 
C=C1/C(=C\C=C2/CCC[C@]3(C)[C@@H]([C@H](C)OCCC(C)(C)O)CC[C@@H]23)C[C@@H](O)C[C@@H]1O [Maxacalcitol, (1S,3R,20S)-20-(3-hydroxy-3-methylbutyl-oxy)-9,10-secopregna-5Z,7E,10(19)-trien-1,3-diol, reference compound] |  | 10 pmol/min/mg | EC50 ([1]; Homo sapiens): 5.4 nM; Urinary excretion of calcium [5]: 1.5 mg; Ratio of urinary excretion of calcium (to Control) [5]: 211%; Urinary excretion of calcium (FIG. 1) [2]: increased in a dose-dependent manner; Calcium Concentration in Serum [4]: 15.0 mg/dL
(1S,3R,20S)-20-(5-Hydroxy-5-methylheptanoyloxy)-9,10-secopregna-5Z,7E,10(19)-trien-1,3-diol [Compound of Example 11] | 4.3 nM | 23 pmol/min/mg | 
